Measured values: patent US4200642A, “Spiro-oxazolidindiones” (Pfizer Inc., priority 1978, dated 1980)
Values joined by “and” are separate entries in the source; they are usually repeats but may differ in a detail not shown here. Identical values can stand only once.

Experiments:
aldose reductase = molecular target: T1, aldose reductase (Bos taurus, UniProt P16116); assay: inhibition of aldose reductase enzyme activity (partially purified enzyme from calf lens); type: biochemical; conditions: / indicates results of duplicate tests; for inhibition at 1 µM: 10^-6 M
T1 construct: partially purified aldose reductase enzyme obtained from calf lens; from tissue; host or cells: calf lens
Procedure: Spiro-oxazolidindiones prepared as described in the previous examples were tested for their ability to reduce or inhibit aldose reductase enzyme activity, following the procedure described in U.S. Pat. No. 3,821,383 and based on the procedure of Hayman et al., Journal of Biological Chemistry, 240, 877 (1965). The substrate employed was partially purified aldose reductase enzyme obtained from calf lens. The results obtained with each compound at a concentration of 10^-6 M are expressed as percent inhibition of enzyme activity.

[1] = test system: sorbitol accumulation in the sciatic nerve of streptozotocinized (i.e., diabetic) rats; assay: inhibition of sorbitol accumulation in the sciatic nerve of streptozotocinized (diabetic) rats; type: in vivo; conditions: measured at 27 hours, vs untreated, values below 20 not always significant; for % Inhibition at mg/kg Dosage 1.5: 1.5 mg/kg orally at 4, 8 and 24 hours after streptozotocin
Procedure: Spiro-oxazolidindiones prepared as described in the above examples were tested for their ability to reduce or inhibit sorbitol accumulation in the sciatic nerve of streptozotocinized (i.e., diabetic) rats by the procedure essentially described in U.S. Pat. No. 3,821,383. In the present study, the amount of sorbitol accumulation in the sciatic nerves was measured 27 hours after induction of diabetes. The compounds were administered orally at the dose levels indicated at 4, 8 and 24 hours following the administration of streptozotocin. The results obtained in this manner are presented below in terms of percent inhibition afforded by the test compound as compared to the case where no compound was administered (i.e., the untreated animal where sorbitol levels normally rise from approximately […]. tissue to as high as 400 mM/g. tissue in the 27-hour test period). In this test values below 20 are not always experimentally and statistically significant.

SMILES	inhibition at 1 µM (aldose reductase) [%]	% Inhibition at mg/kg Dosage 1.5 [1] [%]	% Inhibition at mg/kg Dosage 5 ([1]; 5 mg/kg orally at 4, 8 and 24 hours after streptozotocin) [%]	% Inhibition at mg/kg Dosage 15 ([1]; 15 mg/kg orally at 4, 8 and 24 hours after streptozotocin) [%]	% Inhibition at 10^-6 M (aldose reductase)
O=C1NC(=O)C2(CCOc3ccc(Cl)cc32)O1 (single isomer, unassigned; (-)) [Example 35, (-)-6-Chloro-spiro[4H-2,3-dihydrobenzopyran(4,5')oxazolidin]-2',4'-dione]	96	41	67	88	
O=C1NC(=O)C2(CCOc3ccc(Cl)cc32)O1 (stereo not drawn) [Example 3, 6-Chloro-spiro[4H-2,3-dihydrobenzopyran(4,5')oxazolidin]-2',4'-dione]	86	28			68%
O=C1NC(=O)C2(CCOc3ccc(F)cc32)O1 (stereo not drawn) [Example 28, 6-Fluoro-spiro[4H-2,3-dihydrobenzopyran(4,5')oxazolidin]-2',4'-dione]	65	8			
O=C1NC(=O)C2(CCOc3ccc(Br)cc32)O1 (stereo not drawn) [Example 29, 6-Bromo-spiro[4H-2,3-dihydrobenzopyran(4,5')oxazolidin]-2',4'-dione]	100	35			87%
O=C1NC(=O)C2(CCSc3ccccc32)O1 (stereo not drawn) [Example 30, Spiro[4H-2,3-dihydrobenzothiopyran(4,5')oxazolidin]-2',4'-dione]	42				
O=C1NC(=O)C2(CCSc3ccc(F)cc32)O1 (stereo not drawn) [Example 31, 6-Fluoro-spiro[4H-2,3-dihydrobenzothiopyran(4,5')oxazolidin]-2',4'-dione]	61				
O=C1NC(=O)C2(CCOc3c(Cl)cc(Cl)cc32)O1 (stereo not drawn) [Example 32, 6,8-Dichloro-spiro[4H-2,3-dihydrobenzopyran(4,5')oxazolidin]-2',4'-dione]	100	44			
Cc1cc(Cl)cc2c1OCCC21OC(=O)NC1=O (stereo not drawn) [Example 33, 6-Chloro-8-methyl-spiro[4H-2,3-dihydrobenzopyran(4,5')oxazolidin]-2',4'-dione]	81	33			99%
O=C1NC(=O)C2(CCSc3ccc(Cl)cc32)O1 (stereo not drawn) [Example 34, 6-Chloro-spiro[4H-2,3-dihydrobenzothiopyran(4,5')oxazolidin]-2',4'-dione]		14			70% and 100%
